Molecules are shown by their SMILES.

`Cc1ncccc1NC(=NC#N)NC(NC(=O)Cc1ccc(F)c(F)c1)C(C)(C)C` (centres unmarked) [Example 1, N-[1-({(cyanoimino)[(2-methyl-3-pyridinyl)amino]methyl}amino)-2,2-dimethylpropyl]-2-(3,4-difluorophenyl)acetamide]: the melting point was 58 to 60 °C.
Regarding `Cc1ncccc1NC(=NC#N)NC(NC(=O)Cc1ccc(Cl)cc1)C(C)(C)C` (centres unmarked) [Example 2, 2-(4-chlorophenyl)-N-[1-({(cyanoimino)[(2-methyl-3-pyridinyl)amino]methyl}amino)-2,2-dimethylpropyl]acetamide], the melting point is 180 to 181 °C.
With `COc1ccc(CCCC(=O)NC(NC(=NC#N)Nc2cccnc2C)C(C)(C)C)cc1` (centres unmarked) [Example 3, N-[1-({(cyanoimino)[(2-methyl-3-pyridinyl)amino]methyl}amino)-2,2-dimethylpropyl]-4-(4-methoxyphenyl)butanamide] the figure was 65 to 68 °C.
Next, `Cc1ccc(CC(=O)NC(NC(=NC#N)Nc2cccnc2C)C(C)(C)C)cc1F` (centres unmarked) [Example 4, N-[1-({(cyanoimino)[(2-methyl-3-pyridinyl)amino]methyl}amino)-2,2-dimethylpropyl]-2-(3-fluoro-4-methylphenyl)acetamide]: 75 to 77 °C.
In the case of `Cc1ncccc1NC(=NC#N)NC(NC(=O)CCCCc1ccccc1)C(C)(C)C` (centres unmarked) [Example 5, N-[1-({(cyanoimino)[(2-methyl-3-pyridinyl)amino]methyl}amino)-2,2-dimethylpropyl]-5-phenylpentanamide], the melting point is 133 to 134 °C.
With `Cc1ncccc1NC(=NC#N)NC(NC(=O)Cc1ccc(F)cc1)C(C)(C)C` (centres unmarked) [Example 6, N-[1-({(cyanoimino)[(2-methyl-3-pyridinyl)amino]methyl}amino)-2,2-dimethylpropyl]-2-(4-fluorophenyl)acetamide] the figure was 166 to 167 °C.
The molecule `Cc1ncccc1NC(=NC#N)NC(NC(=O)CCCc1cccs1)C(C)(C)C` (centres unmarked) [Example 7, N-[1-({(cyanoimino)[(2-methyl-3-pyridinyl)amino]methyl}amino)-2,2-dimethylpropyl]-4-(2-thienyl)butanamide] yielded a melting point of 66 to 68 °C.
Molecule `CSc1ccc(CC(=O)NC(NC(=NC#N)Nc2cccnc2C)C(C)(C)C)cc1` (centres unmarked) [Example 8, N-[1-({(cyanoimino)[(2-methyl-3-pyridinyl)amino]methyl}amino)-2,2-dimethylpropyl]-2-[4-(methylthio)phenyl]acetamide] yielded a melting point of 172 to 173 °C.
On to `CCc1ncccc1NC(=NC#N)NC(NC(=O)Cc1ccc(Cl)cc1)C(C)(C)C` (centres unmarked) [Example 9, 2-(4-chlorophenyl)-N-[1-({(cyanoimino)[(2-ethyl-3-pyridinyl)amino]methyl}amino)-2,2-dimethylpropyl]acetamide], for which the melting point is 112 to 114 °C.
Next, `COc1ccc(CC(=O)NC(NC(=NC#N)Nc2ccccc2C)C(C)(C)C)cc1` (centres unmarked) [Example 14, N-[1-({(cyanoimino)[(2-methylphenyl)amino]methyl}amino)-2,2-dimethylpropyl]-2-(4-methoxyphenyl)acetamide]: 174 °C; `Cc1ccccc1NC(=NC#N)NC(NC(=O)Cc1ccc2c(c1)OCO2)C(C)(C)C` (centres unmarked) [Example 15, 2-(1,3-benzodioxol-5-yl)-N-[1-({(cyanoimino)[(2-methylphenyl)amino]methyl}amino)-2,2-dimethylpropyl]acetamide]: 152 to 153 °C.
Molecule `CSc1ccc(CC(=O)NC(NC(=NC#N)Nc2ccccc2C)C(C)(C)C)cc1` (centres unmarked) [Example 16, N-[1-({(cyanoimino)[(2-methylphenyl)amino]methyl}amino)-2,2-dimethylpropyl]-2-[4-(methylthio)phenyl]acetamide] displayed a melting point of 151 to 152 °C.
With `Cc1ccccc1NC(=NC#N)NC(NC(=O)Cc1ccc(Cl)cc1)C(C)(C)C` (centres unmarked) [Example 17, 2-(4-chlorophenyl)-N-[1-({(cyanoimino)[(2-methylphenyl)amino]methyl}amino)-2,2-dimethylpropyl]acetamide] the figure was 181 to 182 °C.
Molecule `Cc1ccccc1NC(=NC#N)NC(NC(=O)CCCc1ccccc1)C(C)(C)C` (centres unmarked) [Example 18, N-[1-({(cyanoimino)[(2-methylphenyl)amino]methyl}amino)-2,2-dimethylpropyl]-4-phenylbutanamide] returned a melting point of 153 to 154 °C.
Next, `COc1ccc(CC(=O)NC(NC(=NC#N)Nc2cc(F)ccc2F)C(C)(C)C)cc1OC` (centres unmarked) [Example 19, N-[1-({(cyanoimino)[(2,5-difluorophenyl)amino]methyl}amino)-2,2-dimethylpropyl]-2-(3,4-dimethoxyphenyl)acetamide]: 190 to 191 °C; `COc1ccc(CC(=O)NC(NC(=NC#N)Nc2ccccc2Cl)C(C)(C)C)cc1OC` (centres unmarked) [Example 20, N-(1-{[[(2-chlorophenyl)amino](cyanoimino)methyl]amino}-2,2-dimethylpropyl)-2-(3,4-dimethoxyphenyl)acetamide]: 135 to 136 °C; `COc1ccc(CC(=O)NC(NC(=NC#N)Nc2cc(C)ccc2C)C(C)(C)C)cc1OC` (centres unmarked) [Example 21, N-[1-({(cyanoimino)[(2,5-dimethylphenyl)amino]methyl}amino)-2,2-dimethylpropyl]-2-(3,4-dimethoxyphenyl)acetamide]: 93 to 94 °C.
With `COc1ccc(CC(=O)NC(NC(=NC#N)Nc2c(F)cc(F)cc2F)C(C)(C)C)cc1OC` (centres unmarked) [Example 22, N-[1-({(cyanoimino)[(2,4,6-trifluorophenyl)amino]methyl}amino)-2,2-dimethylpropyl]-2-(3,4-dimethoxyphenyl)acetamide], the melting point lay in the range of 170 to 171 °C.
Consider `COc1ccc(CC(=O)NC(NC(=NC#N)Nc2cc(Cl)ccc2F)C(C)(C)C)cc1OC` (centres unmarked) [Example 23, N-(1-{[[(5-chloro-2-fluorophenyl)amino](cyanoimino)methyl]amino}-2,2-dimethylpropyl)-2-(3,4-dimethoxyphenyl)acetamide], for which the melting point is 187 to 188 °C.
Next, `COc1ccc(CC(=O)NC(NC(=NC#N)Nc2cccnc2OC)C(C)(C)C)cc1OC` (centres unmarked) [Example 24, N-[1-({(cyanoimino)[(2-methoxy-3-pyridinyl)amino]methyl}amino)-2,2-dimethylpropyl]-2-(3,4-dimethoxyphenyl)acetamide]: 146 to 147 °C; `CC(C)(C)C(NC(=O)Cc1ccc(Cl)cc1)NC(=NC#N)Nc1cccnc1Cl` (centres unmarked) [Example 26, 2-(4-chlorophenyl)-N-(1-{[[(2-chloro-3-pyridinyl)amino](cyanoimino)methyl]amino}-2,2-dimethylpropyl)acetamide]: 174 to 175 °C; `COc1ccc(NC(=NC#N)NC(NC(=O)Cc2ccc(OC)c(OC)c2)C(C)(C)C)c(OC)n1` (centres unmarked) [Example 27, N-[1-({(cyanoimino)[(2,6-dimethoxy-3-pyridinyl)amino]methyl}amino)-2,2-dimethylpropyl]-2-(3,4-dimethoxyphenyl)acetamide]: 162 to 163 °C.
Take `CSc1ccc(CC(=O)NC(NC(=NC#N)Nc2cccc3ncccc23)C(C)(C)C)cc1` (centres unmarked) [Example 31, N-(1-{[(cyanoimino)(5-quinolinylamino)methyl]amino}-2,2-dimethylpropyl)-2-[4-(methylthio)phenyl]acetamide]: the melting point lay in the range of 188 to 189 °C.
Next, `CC(C)(C)C(NC(=O)Cc1ccc(Cl)cc1)NC(=NC#N)Nc1cccc2ncccc12` (centres unmarked) [Example 32, 2-(4-chlorophenyl)-N-(1-{[(cyanoimino)(5-quinolinylamino)methyl]amino}-2,2-dimethylpropyl)acetamide]: 195 to 196 °C; `CC(C)(C)C(NC(=O)Cc1ccc2ccccc2c1)NC(=NC#N)Nc1cccc2ncccc12` (centres unmarked) [Example 36, N-(1-{[(cyanoimino)(5-quinolinylamino)methyl]amino}-2,2-dimethylpropyl)-2-(2-naphthyl)acetamide]: 200 to 201 °C; `CCSc1ccc(CC(=O)NC(NC(=NC#N)Nc2cccc3ncccc23)C(C)(C)C)cc1` (centres unmarked) [Example 37, N-(1-{[(cyanoimino)(5-quinolinylamino)methyl]amino}-2,2-dimethylpropyl)-2-[4-(ethylthio)phenyl]acetamide]: 189 to 190 °C.
The molecule `CC(C)(C)C(NC(=O)Cc1ccc2c(c1)OCCO2)NC(=NC#N)Nc1cccc2ncccc12` (centres unmarked) [Example 38, N-(1-{[(cyanoimino)(5-quinolinylamino)methyl]amino}-2,2-dimethylpropyl)-2-(2,3-dihydro-1,4-benzodioxin-6-yl)acetamide] had a melting point of 191 to 192 °C.
Turning to `CC(C)(C)C(NC(=O)Cc1ccc2cccnc2c1)NC(=NC#N)Nc1cccc2ncccc12` (centres unmarked) [Example 39, N-(1-{[(cyanoimino)(5-quinolinylamino)methyl]amino}-2,2-dimethylpropyl)-2-(7-quinolinyl)acetamide], the melting point was in the range of 147 to 148 °C.
On to `CC(C)(C)C(NC(=O)Cc1ccc2ncccc2c1)NC(=NC#N)Nc1cccc2ncccc12` (centres unmarked) [Example 40, N-(1-{[(cyanoimino)(5-quinolinylamino)methyl]amino}-2,2-dimethylpropyl)-2-(6-quinolinyl)acetamide], for which the melting point lay in the range of 150 to 151 °C.
The molecule `CC(C)(C)C(NC(=O)Cc1ccc(C#N)cc1)NC(=NC#N)Nc1cccc2ncccc12` (centres unmarked) [Example 41, N-(1-{[(cyanoimino)(5-quinolinylamino)methyl]amino}-2,2-dimethylpropyl)-2-(4-cyanophenyl)acetamide] gave a melting point of 194.5 to 195.5 °C.
In turn, `CC(C)(C)C(NC(=O)CCCc1cccnc1)NC(=NC#N)Nc1cccc2ncccc12` (centres unmarked) [Example 42, N-(1-{[(cyanoimino)(5-quinolinylamino)methyl]amino}-2,2-dimethylpropyl)-4-(3-pyridinyl)butanamide] registered a melting point of 181 to 182 °C.
`CN1CCCc2c(NC(=NC#N)NC(NC(=O)Cc3ccc(Cl)cc3)C(C)(C)C)cccc21` (centres unmarked) [Example 43, 2-(4-chlorophenyl)-N-[1-({(cyanoimino)[(1-methyl-1,2,3,4-tetrahydro-5-quinolinyl)amino]methyl}amino)-2,2-dimethylpropyl]acetamide] displayed a melting point of 114 to 117 °C.

Usually melting point stands for the temperature, or range, at which the solid turns liquid.

Values taken from patent US20050171195A1, “P2X7 antagonists for treating neuropathic pain” (priority 2003, published 2005).
